4 compounds from patent publication US4543353A, “Ester and amide derivatives of 13,14-didehydro prostaglandins” (Farmitalia Carlo Erba S.p.A., priority 1981, dated 1985) can be followed below.

A short description of series [1]: duration of activity when administered orally. The class given is in vivo.
The test system of series [2] is hamster. As to the kind of experiment: luteolytic activity in the hamster after subcutaneous injection. Type of series: in vivo. The note with it: Mesocricetus auratus, sc, according to A. B. Labhsetwar, Nature, vol. 230, page 528 (1971). As to the method:
In this application, the compounds are administered either by intravenous infusion at a dose of approximately 0.01-0.05 μg/kg/minute until the end of labor, or by mouth at a single or multiple doses from about 0.05 mg to about 5 mg pro dose. […] For example, the luteolytic activity of the compound 5c-9α,11α,15(S)-trihydroxy-18,19,20-trinor-17-cyclohexyl-prost-5-en-13-ynoic acid 2-ethoxy-ethyl ester, expressed as ED50 value and evaluated in the hamster after subcutaneous injection [according to A. B. LABHSETWAR, Nature, vol.

The nature of series [3]: orientative acute toxicity, LD50, single oral administration. Conditions: mouse, in vivo, mice, nine hours food deprived, assessed on the seventh day. As for the experimental part: The evaluation of the toxicity (as orientative acute toxicity, i.e. LD50) was carried out, e.g., as follows: nine hours food deprived mice were treated orally with single administration of increasing doses, then housed and normally fed; the LD50 was assessed on the seventh day after the treatment.

The structures appear in SMILES notation.

As to `CCOCCOC(=O)CCC/C=C\C[C@@H]1[C@@H](C#C[C@@H](O)CC2CCCCC2)[C@H](O)C[C@@H]1O` [5c-9α,11α,15(S)-trihydroxy-17,18,19,20-tetranor-16-cyclohexyl-prost-5-en-13-ynoic acid 2-ethoxy-ethyl ester], the “activity duration compared with the parent acid or alkyl ester derivatives” value in series [1] was “more lasting activity”.
As to `CCOCCOC(=O)CCC/C=C\C[C@@H]1[C@@H](C#C[C@@H](O)CCC2CCCCC2)[C@H](O)C[C@@H]1O` [5c-9α,11α,15(S)-trihydroxy-18,19,20-trinor-17-cyclohexyl-prost-5-en-13-ynoic acid 2-ethoxy-ethyl ester], in series [2], the ED50 worked out at 0.005 mg/kg.
`COC(=O)CCC/C=C\C[C@@H]1[C@@H](C#C[C@@H](O)CCC2CCCCC2)[C@H](O)C[C@@H]1O` [5c-9α,11α,15(S)-trihydroxy-18,19,20-trinor-17-cyclohexyl-prost-5-en-13-ynoic acid methyl ester, reference compound] returned an ED50 in series [2] of 0.009 mg/kg.
Consider `CCOCCOC(=O)CCC/C=C\C[C@@H]1[C@@H](C#C[C@@H](O)CCCCC2CCCCC2)[C@H](O)C[C@@H]1O` [5c-9α,11α,15(S)-trihydroxy-20-nor-19-cyclohexyl-prost-5-en-13-ynoic acid 2-ethoxy-ethyl ester], for which, in series [1], the “activity duration compared with the parent acid or alkyl ester derivatives” value was “more lasting activity”. Also, the LD50 at 168 h in series [3] is over 3000 mg/kg.

The term ED50 denotes the midpoint of the dose-response relation. The LD50 is the dose expected to kill half of the subjects tested. A low value points to greater toxicity.
